Laboratory results: paper PMC8214221, “Sequence determinants in the cathelicidin LL-37 that promote inflammation via presentation of RNA to scavenger receptors” (The Journal of Biological Chemistry, 2021)
Residues, ends and D or L forms follow the SMILES beside them.

Legend:
[1] = test system: TBK1 and IRF7 phosphorylation in NHEKs; assay: Immunoblot of MAVS pathway signaling in NHEKs; assay type: cell-based, human; conditions: U1 dsRNA 2.5 μg/ml + peptide 2 μM, in comparison to U1 + LL-34 parent
Source text: RNA-Seq was utilized to obtain a global transcriptomic profile and map unique immune pathways in NHEKs exposed to U1 dsRNA, LL-34 parent, Pep I24A, Pep L31A, and a combination of U1 dsRNA and LL-34 parent, Pep I24A, or Pep L31A. […] Similarly, 448 and 325 unique differentially regulated genes were observed after U1 + I24A and U1 + L31A treatments, respectively (Fig. 3, A and B and Fig. S2, A and B). […] These pathways included type 1 interferon signaling, cytokine signaling, response to external biotic stimulus, and cytokine-mediated signaling pathway. […] We verified the repression of mitochondrial antiviral signaling (MAVS) with immunoblot analysis. […]
Figure 3 LL-34 I24A and L31A mutations result in loss of innate immune vetting of U1 dsRNA leading to repressed activation of antiviral and innate immune pathways.A, Venn diagram for all differentially expressed genes from NHEKs treated with U1 dsRNA, LL-34-parent, and combinations of either U1 dsRNA and LL-34-parent. […] Protein expression of p-TBK1, TBK1, p-IRF7, IRF7, p-Akt, Akt, p-ERK1/2, and ERK1/2 was assessed with immunoblot. […]
Cells were lysed in complete radioimmunoprecipitation assay buffer with added 1× protease and Phosphatase Inhibitor Cocktail (Life Technologies). […] Total protein was quantified for each treatment with Bio-Rad Protein Assay (Bio-Rad). […]

Escherichia coli = assay: Bacterial growth inhibition (OD600), E. coli; assay type: cell-based; conditions: 0-50 µM overnight, OD 600, n = 3
Method: We further looked at mRNA abundance by quantitative RT-PCR (qRT-PCR) to evaluate gene expression for type 1 interferon IFNB1, chemokine CXCL10, and cytokines TSLP and IL6 in NHEKs treated with selected LL-34 parent, LL-34—F5A, I24A, F27A, and L31A—peptides either alone or in combination with U1 dsRNA for 18 h (Fig. 1, E–H).
Methicillin-resistant S. aureus USA300 and methicillin-sensitive S. aureus SA113 (American Type Culture Collection 35556) were cultured in 3% tryptic soy broth overnight at 37 °C with shaking at 250 rpm. GAS M49 strain NZ131 was cultured in Todd Hewitt broth supplemented with 1% yeast extract overnight at 37 °C without shaking. E. coli R1 strain RS218 was cultured in LB broth overnight at 37 °C with shaking at 250 rpm. MIC values were determined using a round-bottom 96-well microdilution method with RPMI cell culture media (as a source of Ca^2+ and Mg^2+) supplemented with tryptic soy broth, Todd Hewitt broth/yeast extract, or LB to facilitate growth of the respective bacterial strains. Overnight bacterial cultures were subcultured into fresh broth and grown to midlate log phase indicated by an absorbance at 600 nm value between 0.8 and 1.0 for each bacterial strain. The absorbance was then normalized to provide a concentration of 1 × 10^7 colony-forming units/ml in RPMI medium. The LL-34 parent and alanine scan mutants were serially diluted into the 96-well microtiter plates containing prewarmed RPMI bacterial growth medium. A 10 μl aliquot of the midlate log phase bacteria was inoculated into the 96-well microtiter plates that contained 95 μl of RPMI medium with or without the LL-34 peptide dilutions and incubated for 16 to 18 h at […] with shaking at 200 rpm. Inhibition of growth was determined by measuring the absorbance at 600 nm readings of each well using a microplate reader (Infinite M200 Pro; Tecan). The MIC of each bacterial strain was determined by the lowest peptide concentration that inhibited more than 80% bacterial growth.
(A) NHEKs and HDMECs (B) were treated with LL34- parent peptide and all the 34 alanine substituted peptides (Pep L1A-Pep R34A) and LL37 at 2 µM for 16 h. IL-6 protein secretion was assessed with ELISA (n=3) (C-F) LL34-Parent, LL34 F5A, LL34 I24A, LL34 F27A, and LL34 L31A peptides were incubated with S. aureus USA 300, S. aureus SA113, Group A Streptococcus (GAS) and E. coli at increasing concentrations (0-50 µM) overnight, and bacterial culture growth was assayed as absorbance at OD 600 (n=3).

Row | SMILES | Phosphorylation of TBK1 and IRF7 [1] | Action against Gram-negative E. coli (Escherichia coli)
1 | CC[C@H](C)[C@H](NC(=O)[C@H](CCCCN)NC(=O)[C@H](CCC(=O)O)NC(=O)[C@H](CCCCN)NC(=O)[C@H](CO)NC(=O)[C@H](CCCCN)NC(=O)[C@H](CCCNC(=N)N)NC(=O)[C@H](Cc1ccccc1)NC(=O)[C@H](Cc1ccccc1)NC(=O)[C@H](CC(=O)O)NC(=O)CNC(=O)[C@H](CC(C)C)NC(=O)[C@@H](N)CC(C)C)C(=O)NCC(=O)N[C@@H](CCCCN)C(=O)N[C@@H](CCC(=O)O)C(=O)N[C@@H](Cc1ccccc1)C(=O)N[C@@H](CCCCN)C(=O)N[C@@H](CCCNC(=N)N)C(=O)N[C@H](C(=O)N[C@H](C(=O)N[C@@H](CCC(N)=O)C(=O)N[C@@H](CCCNC(=N)N)C(=O)N[C@H](C(=O)N[C@@H](CCCCN)C(=O)N[C@@H](CC(=O)O)C(=O)N[C@@H](Cc1ccccc1)C(=O)N[C@@H](CC(C)C)C(=O)N[C@@H](CCCNC(=N)N)C(=O)N[C@@H](CC(N)=O)C(=O)N[C@@H](C)C(=O)N[C@H](C(=O)N1CCC[C@H]1C(=O)N[C@@H](CCCNC(=N)N)C(=O)O)C(C)C)[C@@H](C)CC)C(C)C)[C@@H](C)CC [LL-34—L31A] (H-LLGDFFRKSKEKIGKEFKRIVQRIKDFLRNAVPR-OH) | Decreased phosphorylation | little action
2 | CC[C@H](C)[C@H](NC(=O)[C@H](CCCCN)NC(=O)[C@H](CCC(=O)O)NC(=O)[C@H](CCCCN)NC(=O)[C@H](CO)NC(=O)[C@H](CCCCN)NC(=O)[C@H](CCCNC(=N)N)NC(=O)[C@H](Cc1ccccc1)NC(=O)[C@H](Cc1ccccc1)NC(=O)[C@H](CC(=O)O)NC(=O)CNC(=O)[C@H](CC(C)C)NC(=O)[C@@H](N)CC(C)C)C(=O)NCC(=O)N[C@@H](CCCCN)C(=O)N[C@@H](CCC(=O)O)C(=O)N[C@@H](Cc1ccccc1)C(=O)N[C@@H](CCCCN)C(=O)N[C@@H](CCCNC(=N)N)C(=O)N[C@H](C(=O)N[C@H](C(=O)N[C@@H](CCC(N)=O)C(=O)N[C@@H](CCCNC(=N)N)C(=O)N[C@@H](C)C(=O)N[C@@H](CCCCN)C(=O)N[C@@H](CC(=O)O)C(=O)N[C@@H](Cc1ccccc1)C(=O)N[C@@H](CC(C)C)C(=O)N[C@@H](CCCNC(=N)N)C(=O)N[C@@H](CC(N)=O)C(=O)N[C@@H](CC(C)C)C(=O)N[C@H](C(=O)N1CCC[C@H]1C(=O)N[C@@H](CCCNC(=N)N)C(=O)O)C(C)C)C(C)C)[C@@H](C)CC [LL-34—I24A] (H-LLGDFFRKSKEKIGKEFKRIVQRAKDFLRNLVPR-OH) | Decreased phosphorylation | little action
